The values that follow come from paper PMC4916434, “Evaluation of the inhibition potential of plumbagin against cytochrome P450 using LC-MS/MS and cocktail approach” (Scientific Reports, 2016).

The structures appear in SMILES notation.

Holding throughout (test): biochemical
Holding throughout (assay type): in vitro ADME

One series concerns the target T1, CYP1A2 (Homo sapiens, UniProt P05177).
T1 construct: consisting of pooled HLMs (0.5 mg/ml) or RLMs (1 mg/ml) and an NADPH-regenerating system; tissue Corning Gentest Corporation; host or cells: pooled human liver microsomes (n = 20)
T1 sequence (P05177 1-516): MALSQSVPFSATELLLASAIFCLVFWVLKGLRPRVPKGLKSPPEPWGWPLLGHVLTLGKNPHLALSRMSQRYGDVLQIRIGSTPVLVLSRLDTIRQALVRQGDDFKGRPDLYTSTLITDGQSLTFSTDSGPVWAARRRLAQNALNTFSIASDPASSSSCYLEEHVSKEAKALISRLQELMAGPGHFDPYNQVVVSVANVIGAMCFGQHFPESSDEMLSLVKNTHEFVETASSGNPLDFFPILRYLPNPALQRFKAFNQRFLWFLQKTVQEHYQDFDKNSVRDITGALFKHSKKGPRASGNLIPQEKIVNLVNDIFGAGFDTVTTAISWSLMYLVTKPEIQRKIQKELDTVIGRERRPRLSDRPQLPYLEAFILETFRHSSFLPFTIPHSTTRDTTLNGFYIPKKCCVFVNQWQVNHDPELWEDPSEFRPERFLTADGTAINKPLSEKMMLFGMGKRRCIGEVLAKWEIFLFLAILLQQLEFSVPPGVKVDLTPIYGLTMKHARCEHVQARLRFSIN
On the procedure:
(§1) Microsomal incubation was carried out at 37 °C in a mixture of 200 μl in 0.05 M Tris/HCl buffer (pH 7.4) consisting of pooled HLMs (0.5 mg/ml) or RLMs (1 mg/ml) and an NADPH-regenerating system including MgCl2 (5 mM), G6P (10 mM), G6PDH (0.4 U/ml) and NADP (1 mM). Substrates were added into the incubation mixture and obtained the final concentrations (10 μM phenacetin for CYP1A2, 20 μM bupropion for CYP2B1/6, 20 μM tolbutamide for CYP2C9/11, 5 μM dextromethorphan for CYP2D1/6, 20 μM chlorzoxazone for CYP2E1 and 10 μM midazolam for CYP3A2/4), which were close to Km respectively. The proportion of organic solvent was not higher than 1% (v/v) in the incubation mixture. After pre-incubation for 5 min, the reaction was initiated by addition of NADP. Incubations were performed for 20 min, stopped by adding 200 μl ice-cold acetonitrile. And then 20 μl internal standard solution was added (3-acetamidophenol 2 μg/ml, chlorpropamide 2 μg/ml and mebendazole 2 μg/ml). The solution was mixed thoroughly for 3 min and centrifuged for 10 min at 16,000 × g at 4 °C. The supernatant (60 μl) was transferred to autosampler vials, and 2 μl was injected into LC-MS/MS system.
(§2) The IC50 (concentration of inhibitor to cause 50% inhibition of original enzyme activity) values were determined with the same incubation condition above. The specific concentrations of plumbagin were ranged from 0.1 μM to 50 μM. The IC50 values were calculated by plotting relative activities over the logarithm of plumbagin concentrations using GraphPad Prism 5.0 (GraphPad software Inc., CA, USA).
(§3) Cocktail probe substrates were then added and incubated for 20 min. Reactions were stopped with 200 μl ice-cold acetonitrile. The samples were treated according to the microsomal incubation method and then injected into LC-MS/MS for analysis.
(§4) Kinetic studies were performed for determining the types of inhibition on CYP by plumbagin. Pooled HLMs (0.5 mg/ml) or RLMs (1 mg/ml) with plumbagin (1 μM, 2 μM, 5 μM and 10 μM) were incubated in 0.05 M Tris/HCl buffer (pH 7.4) for 20 min at 37 °C. A series of concentrations for cocktail probe substrates were used: 2.5–20 μM phenacetin for CYP1A2; 5–40 μM bupropion for CYP2B1/6; 5–40 μM tolbutamide for CYP2C9/11; 1.25–10 μM dextromethorphan for CYP2D1/6; 5–40 μM chlorzoxazone for CYP2E1; 2.5–80 μM midazolam for CYP3A2; and 0.625–5 μM midazolam for CYP3A4. Enzyme kinetics as well as statistical analysis were performed using GraphPad Prism 5.0.
(§5) All data were presented as mean ± SD. The IC50 values were fitted by non-linear regression analysis using GraphPad Prism 5.0. The kinetic parameters were obtained by fitting velocity data to kinetic models (Michaelis-Menten) using GraphPad Prism 5.0. The Lineweaver-Burk Plot (the reciprocal of reaction velocities versus the reciprocal of substrates concentrations) was used to determine the quality of fit to a specific inhibition model. The inhibition constant (Ki) was obtained by a secondary plot using the slopes of the primary Lineweaver-Burk Plot (Km/Vmax versus inhibitor concentrations). αKi was obtained from a secondary plot using the y-intercepts of the Lineweaver-Burk plot (1/Vmax versus inhibitor concentrations). All results were analyzed in quadruplicate. One-way analysis of variance was used to estimate the significance of differences. There was statistical significance between control and test groups if p < 0.05.

The target in the next series is T2, CYP3A4 (Homo sapiens, UniProt P08684).
T2 construct: consisting of pooled HLMs (0.5 mg/ml) or RLMs (1 mg/ml) and an NADPH-regenerating system; tissue Corning Gentest Corporation; host or cells: pooled human liver microsomes (n = 20)
The procedure: as §1, §2, §3, §4, §5

A further series has as its target T3, CYP2B6 (Homo sapiens, UniProt P20813).
T3 construct: consisting of pooled HLMs (0.5 mg/ml) or RLMs (1 mg/ml) and an NADPH-regenerating system; tissue Corning Gentest Corporation; host or cells: pooled human liver microsomes (n = 20)
T3 sequence (P20813 1-491): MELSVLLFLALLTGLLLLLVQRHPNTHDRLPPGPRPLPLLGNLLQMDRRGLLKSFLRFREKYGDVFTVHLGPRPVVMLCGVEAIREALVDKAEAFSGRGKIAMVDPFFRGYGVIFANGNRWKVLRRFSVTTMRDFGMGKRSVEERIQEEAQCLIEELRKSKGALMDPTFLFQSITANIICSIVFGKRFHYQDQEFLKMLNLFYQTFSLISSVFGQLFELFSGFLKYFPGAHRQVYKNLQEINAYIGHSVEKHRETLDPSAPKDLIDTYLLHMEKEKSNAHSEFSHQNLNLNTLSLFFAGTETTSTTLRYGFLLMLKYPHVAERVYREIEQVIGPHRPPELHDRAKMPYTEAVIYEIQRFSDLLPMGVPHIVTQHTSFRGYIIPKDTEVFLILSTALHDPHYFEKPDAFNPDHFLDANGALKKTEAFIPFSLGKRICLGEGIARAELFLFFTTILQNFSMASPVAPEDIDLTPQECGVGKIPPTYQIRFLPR
The procedure: as §1, §2, §3, §4, §5

What is called IC50 is the point on the concentration scale where inhibition reaches its midpoint. A low value points to higher potency. The term Ki denotes the equilibrium dissociation constant of an inhibitor or competing ligand from its target. High values mean lower affinity, low ones higher affinity.

T2 sequence (P08684 whole entry): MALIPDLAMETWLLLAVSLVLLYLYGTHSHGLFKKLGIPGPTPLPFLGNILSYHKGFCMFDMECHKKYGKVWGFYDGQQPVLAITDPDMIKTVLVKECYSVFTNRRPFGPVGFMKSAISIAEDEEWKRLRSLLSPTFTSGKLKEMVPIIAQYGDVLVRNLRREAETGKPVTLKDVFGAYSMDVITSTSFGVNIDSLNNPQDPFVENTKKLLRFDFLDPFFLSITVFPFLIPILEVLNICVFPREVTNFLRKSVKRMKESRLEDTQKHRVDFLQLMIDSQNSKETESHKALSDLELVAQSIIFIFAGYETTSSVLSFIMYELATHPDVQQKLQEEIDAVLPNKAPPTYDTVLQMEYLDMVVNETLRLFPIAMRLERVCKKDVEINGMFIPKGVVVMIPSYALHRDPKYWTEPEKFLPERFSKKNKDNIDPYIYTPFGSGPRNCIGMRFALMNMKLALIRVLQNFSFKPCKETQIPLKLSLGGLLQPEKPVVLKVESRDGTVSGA

On to `CC1=CC(=O)c2c(O)cccc2C1=O` [plumbagin, 5-hydroxy-2-methyl-1,4-naphthoquinone], for which the figures for the IC50 against CYP1A2, against CYP3A4 and against CYP2B6 were 7.49 µM, 6.45 µM and 13.1 µM, respectively. The Ki was found to be 0.15 µM at CYP1A2, 0.88 µM on CYP3A4 and 1.62 µM on CYP2B6. Further, the values for the Type of inhibition result on CYP1A2, on CYP3A4 and at CYP2B6 were “non-competitive”, “mixed-type” and “mixed-type”, respectively. For the same compound, the α on CYP1A2 (human, 20 min, pH 7.4) came out at 0.94; at CYP3A4 (human, 20 min, pH 7.4), 1.54; at CYP2B6 (human, 20 min, pH 7.4) it was 0.55. Also, the αKi amounted to 0.16 µM at CYP1A2 (human, 20 min, pH 7.4); 0.57 µM on CYP3A4 (human, 20 min, pH 7.4); 2.92 µM on CYP2B6 (human, 20 min, pH 7.4).
